Here are results for three compounds from patent US20050208151A1, “Treatment of rheumatoid arthritis with FLIP antagonists” (Entelos, Inc., priority 2003, published 2005).

Data set [1] has as its system MNC and macrophages from RA synovial fluid. Briefly: uptake of FITC-labeled oligonucleotides by flow cytometry. It is filed as cell-based, human. Conditions: 10-20 μM, 24h, 70% ETOH fixed cells. As for the experimental part:
MNC and macrophages from RA synovial fluid are incubated for 24h with FITC-labeled antisense phosphorothioate oligodeoxynucleotides (10-20 μM) comprising the FLIP initiation codon (5′-[…]-3′) (SEQ ID NO: 2). A nonsense oligonucleotides is used as negative control (for example; 5′-TGGATCCGACATGTCAGA-3′) (SEQ ID NO: 3). Uptake of the FITC-labeled oligonucleotides are measured by flow cytometry on 70% ETOH fixed cells. A 80-90% transfection efficiency is expected. A general caspase inhibitor (e.g., 20 μM zVAD.fmk) is used as negative control in all apoptosis assays. As a positive control of macrophage apoptosis, the cells are treated with 50 μM of the phosphatidylinositol 3-kinase inhibitor LY294002 for 24 h.
A general note: Flow cytometry measures light scatter and fluorescence of single cells or particles in a stream.

Data set [2] has as its system rheumatoid arthritis. The conditions noted are these: methotrexate treatment; level after 6 months therapy; cited from earlier work.
Data set [3] concerns RA patients' synovial macrophages. Conditions: Fas agonist with vs without BIS, which blocked FLIP expression; cited from earlier work.

“5′-GACTTCAGCAGACATCCTAC-3′ (DNA, all phosphorothioate, methylation of C not given here; FITC label; listed as Homo sapiens) [FITC-labeled antisense phosphorothioate oligodeoxynucleotides comprising the FLIP initiation codon]”: the “transfection efficiency (uptake of FITC-labeled oligonucleotides)” value in data set [1] was 80-90%.
`CN(Cc1cnc2nc(N)nc(N)c2n1)c1ccc(C(=O)N[C@@H](CCC(=O)O)C(=O)O)cc1` [Methotrexate, methotrexate]: in data set [2], the “decrease in rate of cartilage degradation” value is “approximately 17%” and the “decrease in synovial cell density” value was “approximately 33%”.
Consider `CN(C)CCCn1cc(C2=C(c3c[nH]c4ccccc34)C(=O)NC2=O)c2ccccc21` [bisinodylmaleimide I], for which the “increase in macrophage apoptosis” value in data set [3] is about 9 fold.
